In US6774143B1, “Method for treating cells resistant to antineoplastic agents” (Novartis AG, priority 2003, dated 2004):
In brackets after ≈: the same amount, converted by molar mass. Read-outs that look alike come from different tables or passages of the source.

Legend:
[1] = test system: 1A9 cells; experiment: In vitro cytotoxicity assay (MTT); format: cell-based; details: Homo sapiens, 1A9, 72 h, 1A9 cells, 72 hours
Experimental: (§1) 1A9 and 1A9PTX22 cells are plated in 96-well plates at 5×10^4 cells/well, plced in a tissue culture incubator and allowed to attach overnight. The next morning, the number of viable cells in the “time 0” plate (3 wells for each cell line) is determined using an MTT assay (Alley M C, et al., Cancer Res. 1988, 48:589-601).
(§2) At the same time drugs are added in serial, 10-fold dilutions, to the experimental plates. Corresponding vehicles are added to control plates. Experimental and control plates are then incubated in the tissue culture incubator for 72 hours. After the incubation the number of viable cells is determined in each plate using the MTT assay. IC50s (defined as a concentration of a given compound causing 50% inhibition of cell growth) are determined by comparing cell growth in the drug-treated plate (T−T0) to the cell growth in the corresponding control plate (C−T0). For each experiment results are calculated using average numbers from two sets of plates.
(§3) Discodermolide is isolated from the sponge Discodermia dissoluta using the method of Gunasekera SP (supra). Multiple batches of compound of similar purity (all>95% pure, as determined by mass spectrometry, and nuclear magnetic resonance analysis) are used throughout the various studies. For the in vitro cytotoxicity assays all compounds are dissolved in DMSO and are added to the plates with cells to obtain desired concentrations. […] Paclitaxel is purchased from Sigma/Aldrich, (St. Louis, Mo.). For the in vivo hollow fiber assay, solid discodermolide is dissolved in pure ethanol to create a stock solution which is diluted just before dosing with Cremophor EL and D5W to a final concentration of 16.7% Cremophor EL, 8.3% ethanol and 75% D5W. The compound is administered to mice as a single, 15 mg/kg iv injection. Positive control animals receive clinical formulations of paclitaxel (TAXOL) diluted 4-fold with D5W (12.5% Cremophor El, 12.5% ethanol and 75% D5W final concentrations) and administered iv, at 15 mg/kg, once daily for five consecutive days. Vehicle controls are administered according to the corresponding drug schedules.

[2] = test system: 1A9PTX22 cells (β-tubulin mutation); experiment: In vitro cytotoxicity assay (MTT); format: cell-based, human
Experimental: as §1, §2, §3

[3] = In vivo hollow fiber assay, body weight of the animals; design: species or system mice; details: both experiments
Experimental: Outbred athymic (nu/nu) female mice (“Chrls:Athymic Nude-nu”, Charles River Laboratories, Wilmington, Mass.) are anesthetized with ip injections of Ketamine/Xylazine (150 mg/kg, and 12 mg/kg body weight, respectively). For the subcutaneous implantation an 11-gauge trocar containing one or two hollow fibers is inserted into an incision made with scissors at the nape of the neck of an animal, and fibers are released by retracting the trocar while depressing the plunger. This procedure is repeated until all three hollow fibers are implanted. One wound clip is used to close the skin incision After the surgery each animal receives a single, subcutaneous injection of 0.4 mg/kg butorphenol to relieve any potential pain. Animals recover from the anesthesia on a heating pad, before retuning to their cages.
One day after the implantation (3 hollow fibers/animal, each hollow fiber containing one cell line: LS 174T, 1A9, and 1A9PTX22) animals are randomly sorted into five groups of six mice/group. […]
Discodermolide is isolated from the sponge Discodermia dissoluta using the method of Gunasekera SP (supra). Multiple batches of compound of similar purity (all>95% pure, as determined by mass spectrometry, and nuclear magnetic resonance analysis) are used throughout the various studies. […]

[4] = test system: Raf-1; experiment: Western blot, Raf-1 phosphorylation; format: cell-based, human
Experimental: (§4) Cells are plated at a density of 1.5×10^6 cells per 100 mm plate. The next day cells are treated with vehicle control (0.1% DMSO) or test compound for 24 h. Cells are harvested by washing monolayers twice with PBS, then lysing with 300 ul of lysis buffer[20 mM Tris (pH 8.0), […], 100 mM NaCl, 0.5% NP40, 0.0125% DOC, 2.5% glycerol, 1 mM vanadate, 25 mM sodium fluoride and protease inhibitor cocktail (1:500 dilution, Sigma)]. Lysates were spun at 12,000× g and the supernatant transferred to a new tube. Protein concentration of the lysates is determined using BCA protein assay Reagent (Pierce). Samples (75 μg) are resolved by SDS-PAGE on a 7.5% or 14% tris-glycine gel for Raf-1 and Bcl-xL, respectively, and transferred to nitrocellulose. Immunodetection is performed as described by Amersham Vistra Fluorescence Western blotting Kit directions with the following modifications: the membrane is blocked with 5% milk (Carnation Non-Fat Dry Milk) in buffer containing 20 mM Tris-HCl (pH=7.4), 100 mM NaCl, and 0.2% Tween 20 (TBST) overnight and is subsequently incubated for 2 h with primary antibody (Santa Cruz C-12 for Raf-1 and Santa Cruz H-62 for Bcl-xL), followed by fluorescein-linked anti-rabbit Ig in 5% milk and anti-fluorescein alkaline phosphatase conjugate in TBST at 1:500 and 1:2000 dilutions, respectively. A Storm 860 (Molecular Dynamics) is used to detect fluorescent product according to the manufacturer's instructions.

[5] = test system: Bcl-xL; experiment: Western blot, Bcl-xL phosphorylation; format: cell-based, human; details: 24 hour treatment
Experimental: as §4

[6] = Toxicity in non-tumor bearing naive nude mice (body weight); format: in vivo; details: for body weight change: naive mice
Experimental: To assess toxicity of discodernolide on non-tumor bearing animals, four groups of 8 naive nude mice are dosed with the compound, iv, once (5 mg/kg, 7.5 mg/kg, 10 mg/kg, or 15 mg/kg). The control group is dosed with the vehicle alone (16.7% Cremophor EL, 8.3% ethanol and 75% D5W). Body weights are recorded once weekly.

[7] = MDA-MB-435 cells, 24 hour treatment

CC(=O)O[C@H]1C(=O)[C@@]2(C)[C@H]([C@H](OC(=O)c3ccccc3)[C@]3(O)C[C@H](OC(=O)[C@H](O)[C@@H](NC(=O)c4ccccc4)c4ccccc4)C(C)=C1C3(C)C)[C@]1(OC(C)=O)CO[C@@H]1C[C@@H]2O [paclitaxel, reference compound] gave an IC50 ([1]; first experiment, read-out: IC50) of 0.8 ng/mL (≈ 0.937 nM), an IC50 ([1]; second experiment, read-out: IC50) of 0.4 ng/mL (≈ 0.468 nM) and an IC50 ([2]; Homo sapiens, 1A9/ptx-22, 72 h, 1A9PTX22 cells, 72 hours, first experiment, read-out: IC50) of 15 ng/mL (≈ 17.6 nM). The IC50 ([2]; Homo sapiens, 1A9/ptx-22, 72 h, 1A9PTX22 cells, 72 hours, second experiment, read-out: IC50) was 9 ng/mL (≈ 10.5 nM), the “fold resistance of 1A9PTX22 versus parental 1A9” value ([2]; from IC50s of the two in vitro experiments) was 20 fold and the body weight lost ([3]; paclitaxel iv 15 mg/kg once daily for 5 days) was 5%. For the same compound, the Raf-1 phosphorylation ([4]; 1A9 parental cells) was “phosphorylated”, the Raf-1 phosphorylation ([4]; A549 cells, 24 hour treatment) was “phosphorylated” and the Raf-1 phosphorylation [4, 7] was “phosphorylated”. For the same compound, the Raf-1 phosphorylation ([4]; PTX-22 cells) was “not observed”, the Bcl-xL phosphorylation ([5]; A549 cells) was “phosphorylated” and the Bcl-xL phosphorylation ([5]; MDA-MB-435 cells) was “phosphorylated”.
For C=C/C=C\[C@H](C)[C@H](OC(N)=O)[C@@H](C)[C@H](O)[C@@H](C)C/C(C)=C\[C@H](C)[C@@H](O)[C@@H](C)/C=C\[C@@H](O)C[C@@H]1OC(=O)[C@H](C)[C@@H](O)[C@H]1C [discodermolide, (+)-Discodermolide], the body weight lost ([6]; naive athymic nude mice, single injections, one week after dosing) was “no more than 4%”, the body weight change ([6]; single iv 5 mg/kg, one week after dosing) was “+8.7%” and the body weight change ([6]; single iv 5 mg/kg, three weeks after dosing) was “+9.4%”. The body weight change ([6]; single iv 5 mg/kg, two weeks after dosing) was “+9.4%”, the body weight change ([6]; single iv 7.5 mg/kg, one week after dosing) was “+1.2%” and the body weight change ([6]; single iv 7.5 mg/kg, three weeks after dosing) was “+7.7%”. For the same compound, the body weight change ([6]; single iv 7.5 mg/kg, two weeks after dosing) was “+3.2%”, the body weight change ([6]; single iv 10 mg/kg, one week after dosing) was −1.2% and the body weight change ([6]; single iv 10 mg/kg, three weeks after dosing) was “+5.6%”. For the same compound, the body weight change ([6]; single iv 10 mg/kg, two weeks after dosing) was “+1.2%”, the body weight change ([6]; single iv 15 mg/kg, one week after dosing) was −4.1% and the body weight change ([6]; single iv 15 mg/kg, three weeks after dosing) was “+5.90%”. It also gave a body weight change ([6]; single iv 15 mg/kg, two weeks after dosing) of −0.4%, an IC50 ([1]; first experiment) of 6 ng/mL (≈ 10.1 nM) and an IC50 ([1]; second experiment) of 3 ng/mL (≈ 5.05 nM). For the same compound, the IC50 ([2]; 1A9PTX22 cells, 72 hours, second experiment) was 3 ng/mL (≈ 5.05 nM), the IC50 ([2]; Homo sapiens, 1A9/ptx-22, 72 h) was 3 ng/mL (≈ 5.05 nM) and the body weight lost ([3]; discodermolide single 15 mg/kg iv) was 10%. The Raf-1 phosphorylation ([4]; 1A9 parental cells) was “phosphorylated”, the Raf-1 phosphorylation ([4]; A549 cells, 24 hour treatment) was “phosphorylated” and the Raf-1 phosphorylation [4, 7] was “phosphorylated”. For the same compound, the Raf-1 phosphorylation ([4]; PTX-22 cells) was “phosphorylated”, the Bcl-xL phosphorylation ([5]; A549 cells) was “phosphorylated” and the Bcl-xL phosphorylation ([5]; MDA-MB-435 cells) was “phosphorylated”.
